# From the SangsterLogP compilation
# Experiment: method code SF-AS, from DOI: 10.1016/0223-5234(92)90004-k
row,Compound,logP
1,COc1ccc(-c2cn3cc(N)cnc3n2)c(OC)c1,1.68
2,COc1cc(OS(C)(=O)=O)ccc1-c1cn2cccnc2n1,1.05
3,COc1cc(S(C)=O)ccc1-c1nc2ncc(N)cc2[nH]1 (stereo not given),0.33
4,COc1ccc(-c2nc3ncc(N)cc3[nH]2)c(OC)c1,1.62
5,COc1cc(C(N)=O)ccc1-c1nc2cnccc2[nH]1,1.18
6,COc1ccc(-c2cn3cccnc3n2)c(OC)c1,1.94
7,COc1cc(NS(C)(=O)=O)ccc1-c1cn2cccnc2n1,0.72
8,COc1ccc(-c2nc3ncccc3[nH]2)c(OC)c1,2.56
9,COc1cc(C(N)=O)ccc1-c1cn2cccnc2n1,0.7
10,COc1cc(SC)ccc1-c1cn2cccnc2n1,2.44
